# Measurements from ChEMBL document CHEMBL3507680, “University of Dundee, Gates Library screen for HepG2 cell viability”.
# Assay: Human HepG2 cell viability assay in 384 well format
# Assay type: toxicity, cell-based
# Parameters: dose 125 nL, time 70.5 hour; concentration not given beside the values
# Conditions: HepG2 cells, read-out: Inhibition
row,Compound,cytotoxicity at 70.5 h
1,CC(c1nc(C(C)(C)C)no1)N1CCN(CC(=O)N2CCOCC2)CC1 (stereo unspecified),-16.5%
2,CC(C(=O)NCC1(c2cccc(Br)c2)CCC1)S(C)(=O)=O (stereo unspecified),7%
3,Cc1cc(-c2cnc(NCc3cccnc3)nc2C(C)C)on1,-25.7%
4,COCC1CN(C(=O)N2CCCC2)Cc2cnn(CC3CCCC3)c21 (stereo unspecified),-1.96%
5,CCSc1cncc(N2CCC(C(=O)Nc3ccccn3)CC2)n1,-3.08%
6,O=C1CCC(c2ccccc2)(c2ccccc2)CN1CCO,-3.47%
7,O=C(NCCc1cccs1)NCC(O)c1cccc(F)c1 (stereo unspecified),-7.4%
8,COc1cc(C)nc(N2CCN(C(=O)CCc3nccs3)CC2)n1,9.16%
9,CCN(C(=O)COC)C(c1ccc(Cl)cc1)c1ccccn1 (stereo unspecified),-21.9%
10,CN(Cc1ccc2c(c1)OCO2)Cc1nc2c(cnn2C)c(=O)[nH]1,1.92%
11,Cc1ccc(CNC(=O)C2CCN(C(=O)c3ccccc3)CC2)n1C,-8.06%
12,COc1nc2ccccc2cc1CN1CCC(CNS(C)(=O)=O)C1 (stereo unspecified),0.512%
13,CC(C)c1ncc(Cl)c(C(=O)N2CCN3CCCCC3C2)n1 (stereo unspecified),36.2%
14,Cc1nc(CO[C@@H]2CN(Cc3ccc(F)cc3)[C@@H]3COC[C@@H]32)cs1,-7.17%
15,CNC(=O)CS(=O)(=O)Cc1coc(-c2ccc(OC)cc2)n1,-12.7%
16,CCn1cc(CN2CCC(c3ccncc3)CC2)cc1C#N,-5.65%
17,CCn1cc(NC(=O)NCC(O)c2ccccc2)cn1 (stereo unspecified),2.91%
18,CCc1cnc(CN(C(C)=O)C2CCN(CCS(C)(=O)=O)C2)o1 (stereo unspecified),32.1%
19,COCC(=O)N1CCc2cccc(S(=O)(=O)N3CCOCC3)c2C1,-6.37%

row,Compound,cytotoxicity at 70.5 h
1,Cc1cc2nc(SCC(=O)NC(C)C)n(Cc3ccco3)c(O)c-2n1,-14.4%
2,Cc1ccccc1-c1noc(-c2ccc(NCC3COCCO3)nc2)n1 (stereo unspecified),-3.64%
3,CCCn1nnc(NCc2ccccc2OCc2ccc(Cl)cc2)n1,-7.74%
4,CC(CN1CCC(c2ccccc2)CC1)n1cnc2ccccc21 (stereo unspecified),-18.3%
5,Cc1cc2c(c(-c3c[nH]c(C)n3)c1)OC(CN)C2 (stereo unspecified),2.12%
6,COC(=O)c1cccc2nc([C@H]3CCN(C4CCN(C)CC4)C3)oc12,-2.72%
7,COc1ccc([C@@H]2C[C@H](NC(C)=O)C[C@H](CCc3ccccc3)O2)cn1,-4.78%
8,CC(=O)N1C[C@@H]2CC[C@H](C1)N(C(=O)CCc1n[nH]c3c1CCCC3)C2,1.78%
9,O=C(c1ccc(N2CCOCC2)nc1)N1CCCC(n2ccnc2)C1 (stereo unspecified),-3.02%
10,c1cnc(-c2nc(C3CCOC3)no2)cn1 (stereo unspecified),-3.44%
11,CC(Cn1cccn1)n1cnc2ccc(F)cc2c1=O (stereo unspecified),-7.83%
12,Cc1cnc(N2CCOC3(CCCN(c4ncccn4)C3)C2)nc1 (stereo unspecified),-4.18%
13,CC(C(=O)N1CCCN(c2ncccc2C#N)CC1)n1ccnc1 (stereo unspecified),21.6%
14,CN(C)c1ncc2c(n1)CN(C1CCSCC1)C2=O,22.1%
15,Cc1nn(C)c2c(N3CCCC3)nc(C3CC3)nc12,-11.4%
16,CN(C)C(CNC(=O)c1ccc(-n2cnnn2)cc1)c1ccccc1Cl (stereo unspecified),5.44%
17,CCN1CCN(C2(C(=O)NC3CCCC3)Cc3ccccc3C2)CC1,-3.96%
18,CCN1CC2(CC1=O)CN(C(=O)c1ccoc1)CCN(C(=O)N(C)C)C2 (stereo unspecified),3.23%
19,CCC(C)NC(=O)CCNC(=O)Nc1ccc(-n2cncn2)c(F)c1 (stereo unspecified),-10.1%

row,Compound,cytotoxicity at 70.5 h
1,O=C(NCCn1ccnc1)N1CCCC1c1ccsc1 (stereo unspecified),-4.3%
2,O=C(O)c1cccnc1CN1CCOc2ccccc2C1,-9.48%
3,CCN1CCN(c2nsc(-c3cccnc3)c2C#N)CC1,-5.08%
4,CCN(CCO)C[C@@H]1CN(c2cc(C(F)(F)F)cc(C)n2)C[C@@H]1CO,-8.43%
5,CN(C)C1COC2(CCN(S(=O)(=O)c3ccc(F)cc3)CC2)C1 (stereo unspecified),-13.4%
6,COc1cc(C(=O)N2CC(Oc3ccccc3Cl)C2)ccn1,-3.47%
7,Cn1c(C(F)(F)F)nn(CCNC(=O)NCc2ccccc2)c1=O,16.5%
8,N#Cc1cccnc1N1CCC(Nc2ccccc2)C1 (stereo unspecified),-8.64%
9,Cc1cncc(C(=O)NCCSCc2cccs2)c1,-3.14%
10,CC(C)OCCCN1CCCC(c2nc3ccccc3n2C(C)C)C1 (stereo unspecified),13.2%
11,CN(CCn1cccn1)c1cc(C(F)(F)F)nc(-c2cccnc2)n1,-4.93%
12,O=C(NCC1CCCO1)c1cc(-c2cccnc2)c2cnccc2n1 (stereo unspecified),-3.09%
13,CCc1noc(C2CCCCN2C(=O)c2ccoc2C)n1 (stereo unspecified),9.18%
14,Cn1cc(CN2CCc3c(COCc4ccncc4)cncc3C2)cn1,-6.18%
15,CC(C)N(C)Cc1ccccc1CNc1ccc2nncn2n1,-12%
16,COc1cc(NCc2ccccc2-n2cncn2)nc(N)n1,-6.05%
17,CC(=O)Nc1ccc(SCCCC(=O)NCC2CCCO2)nn1 (stereo unspecified),-11.3%
18,CCN1C[C@@H]2CN(C(=O)NCc3ccccc3)CCC[C@]2(C(=O)O)C1,-15.2%
